Experiments:
[1] = molecular target: HCV NS3 protease genotype 3a (3A-1) (Hepatitis C virus genotype 3a, UniProt Q81258); assay: HCV NS3 protease time-resolved fluorescence (TRF) assay, genotype 3a; assay type: biochemical; details: Ki 3a
Procedure, shortened: (§1)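 Pre-incubation of NS3/NS4A protease with inhibitor for 10 min in pH 7.5 HEPES buffer with 10 mM DTT; 25 nM TRF peptide substrate, hydrolysis 6 h at room temperature. Fluorescence read at ex 340/em 615 nm with 400 μs delay, enzyme level set for S/B 5-20; IC50 by four-parameter fit.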

[2] = molecular target: T1, HCV genotype 1b (BK) NS3 modified enzyme with a R155K mutation (Hepatitis C virus genotype 1b, UniProt P26663, R1181K); assay: HCV NS3 protease time-resolved fluorescence (TRF) assay, genotype 1b R155K; assay type: biochemical; details: Ki 1b R155K, genotype 1b (BK) NS3 R155K; single value
T1 construct: HCV genotype 1b (BK) NS3 modified enzyme
Procedure, shortened: as §1

SMILES	Ki [1]	Ki [2]
C=C[C@@H]1C[C@]1(NC(=O)[C@@H]1C[C@@H]2CN1C(=O)[C@H](C(C)(C)C)NC(=O)O[C@@H]1C[C@H]1CCCCCc1c(nc3cc(F)ccc3c1OCCCN1CCCC1)O2)C(=O)NS(=O)(=O)C1(C)CC1 [Example 151, (1aR,5S,8S,10R,22aR)-5-tert-butyl-N-[(1R,2S)-2-ethenyl-1-{[(1-methylcyclopropyl)sulfonyl]carbamoyl}cyclopropyl]-14-fluoro-3,6-dioxo-17-[3-(pyrrolidin-1-yl)propoxy]-1,1a,3,4,5,6,9,10,18, 19,20,21,22,22a-tetradecahydro-8H-7,10-methanocyclopropa[18,19][1,10,3,6] dioxadiazacyclononadecino[11,12-b] quinoline-8-carboxamide]	620 pM	74 pM
C=C[C@@H]1C[C@]1(NC(=O)[C@@H]1C[C@@H]2CN1C(=O)[C@H](C(C)(C)C)NC(=O)O[C@@H]1C[C@H]1CCCCCc1c(nc3cc(F)ccc3c1OCCCN1CCOCC1)O2)C(=O)NS(=O)(=O)C1(C)CC1 [Example 152, (1aR,5S,8S,10R,22aR)-5-tert-butyl-N-[(1R,2S)-2-ethenyl-1-{[(1-methylcyclopropyl)sulfonyl]carbamoyl}cyclopropyl]-14-fluoro-17-[3-(morpholin-4-yl)propoxy]-3,6-dioxo-1,1a,3,4,5,6,9, 10,18,19,20,21,22,22a-tetradecahydro-8H-7,10-methanocyclopropa[18,19] [1,10,3,6]dioxadiaza cyclononadecino[11,12-b]quinoline-8-carboxamide]	1500 pM	250 pM
C=C[C@@H]1C[C@]1(NC(=O)[C@@H]1C[C@@H]2CN1C(=O)[C@H](C(C)(C)C)NC(=O)O[C@@H]1C[C@H]1CCCCCc1c(nc3c(OC)cccc3c1OCCCN1CC3(COC3)C1)O2)C(=O)NS(=O)(=O)C1(C)CC1 [Example 153, (1aR,5S,8S,10R,22aR)-5-tert-butyl-N-[(1R,2S)-2-ethenyl-1-{[(1-methylcyclopropyl)sulfonyl]carbamoyl}cyclopropyl]-13-methoxy-17-[3-(2-oxa-6-azaspiro[3.3]hept-6-yl)propoxy]-3,6-dioxo-1,1a, 3,4,5,6,9,10,18,19,20,21,22,22a-tetradeca hydro-8H-7,10-methanocyclopropa[18,19][1,10,3,6] dioxadiazacyclononadecino [11,12-b]quinoline-8-carboxamide]	610 pM	59 pM
C=C[C@@H]1C[C@]1(NC(=O)[C@@H]1C[C@@H]2CN1C(=O)[C@H](C(C)(C)C)NC(=O)O[C@@H]1C[C@H]1CCCCCc1c(nc3ccccc3c1OCCCN1CC3(CCC3)C1)O2)C(=O)NS(=O)(=O)C1(C)CC1 [Example 154, (1aR,5S,8S,10R,22aR)-17-[3-(2-azaspiro[3.3]hept-2-yl)propoxy]-5-tert-butyl-N-[(1R,2S)-2-ethenyl-1-{[(1-methylcyclopropyl)sulfonyl]carbamoyl}cyclopropyl]-3,6-dioxo-1,1a,3,4,5,6,9,10,18,19,20, 21,22,22a-tetradecahydro-8H-7,10-methanocyclopropa[18,19] [1,10,3,6]dioxadiazacyclononadecino [11,12-b]quinoline-8-carboxamide]	1500 pM	110 pM
C=C[C@@H]1C[C@]1(NC(=O)[C@@H]1C[C@@H]2CN1C(=O)[C@H](C(C)(C)C)NC(=O)O[C@@H]1C[C@H]1CCCCCc1c(nc3ccccc3c1OCCCN1CC(F)C1)O2)C(=O)NS(=O)(=O)C1(C)CC1 [Example 155, (1aR,5S,8S,10R,22aR)-5-tert-butyl-N-[(1R,2S)-2-ethenyl-1-{[(1-methylcyclopropyl)sulfonyl]carbamoyl}cyclopropyl]-17-[3-(3-fluoroazetidin-1-yl)propoxy]-3,6-dioxo-1,1a,3,4,5,6,9,10,18,19,20, 21,22,22a-tetradecahydro-8H-7,10-methanocyclopropa[18,19][1,10,3,6] dioxadiazacyclononadecino [11,12-b]quinoline-8-carboxamide]	1400 pM	110 pM
C=C[C@@H]1C[C@]1(NC(=O)[C@@H]1C[C@@H]2CN1C(=O)[C@H](C(C)(C)C)NC(=O)O[C@@H]1C[C@H]1CCCCCc1c(nc3ccccc3c1OCCCN1CCC(OC)CC1)O2)C(=O)NS(=O)(=O)C1(C)CC1 [Example 156, (1aR,5S,8S,10R,22aR)-5-tert-butyl-N-[(1R,2S)-2-ethenyl-1-{[(1-methylcyclopropyl)sulfonyl]carbamoyl}cyclopropyl]-17-[3-(4-methoxypiperidin-1-yl)propoxy]-3,6-dioxo-1,1a,3,4,5,6,9, 10,18,19,20,21,22,22a-tetradecahydro-8H-7,10-methanocyclopropa[18,19] [1,10,3,6]dioxadiaza cyclononadecino[11,12-b]quinoline-8-carboxamide]	840 pM	79 pM
C=C[C@@H]1C[C@]1(NC(=O)[C@@H]1C[C@@H]2CN1C(=O)[C@H](C(C)(C)C)NC(=O)O[C@@H]1C[C@H]1CCCCCc1c(nc3ccccc3c1OCCCN1CC(OC)C1)O2)C(=O)NS(=O)(=O)C1(C)CC1 [Example 157, (1aR,5S,8S,10R,22aR)-5-tert-butyl-N-[(1R,2S)-2-ethenyl-1-{[(1-methylcyclopropyl)sulfonyl]carbamoyl}cyclopropyl]-17-[3-(3-methoxyazetidin-1-yl)propoxy]-3,6-dioxo-1,1a,3,4,5,6,9,10, 18,19,20,21,22,22a-tetradecahydro-8H-7,10-methanocyclopropa[18,19] [1,10,3,6]dioxadiazacyclononadecino [11,12-b]quinoline-8-carboxamide]	760 pM	49 pM
C=C[C@@H]1C[C@]1(NC(=O)[C@@H]1C[C@@H]2CN1C(=O)[C@H](C(C)(C)C)NC(=O)O[C@@H]1C[C@H]1CCCCCc1c(nc3ccccc3c1OCCCN1CCCC(F)C1)O2)C(=O)NS(=O)(=O)C1(C)CC1 (stereo partly drawn) [Example 158, (1aR,5S,8S,10R,22aR)-5-tert-butyl-N-[(1R,2S)-2-ethenyl-1-{[(1-methylcyclopropyl)sulfonyl]carbamoyl}cyclopropyl]-17-[3-(3-fluoropiperidin-1-yl)propoxy]-3,6-dioxo-1,1a,3,4,5,6,9,10,18,19, 20,21,22,22a-tetradecahydro-8H-7,10-methanocyclopropa[18,19][1,10,3,6] dioxadiazacyclononadecino[11,12-b] quinoline-8-carboxamide]	2600 pM	190 pM
C=C[C@@H]1C[C@]1(NC(=O)[C@@H]1C[C@@H]2CN1C(=O)[C@H](C(C)(C)C)NC(=O)O[C@@H]1C[C@H]1CCCCCc1c(nc3cc(C(C)C)ccc3c1OCCCN1CCCC1)O2)C(=O)NS(=O)(=O)C1(C)CC1 [Example 159, (1aR,5S,8S,10R,22aR)-5-tert-butyl-N-[(1R,2S)-2-ethenyl-1-{[(1-methylcyclopropyl)sulfonyl]carbamoyl}cyclopropyl]-3,6-dioxo-14-(propan-2-yl)-17-[3-(pyrrolidin-1-yl)propoxy]-1,1a,3,4,5,6,9, 10,18,19,20,21,22,22a-tetradecahydro-8H-7,10-methanocyclopropa[18,19] [1,10,3,6]dioxadiazacyclononadecino [11,12-b]quinoline-8-carboxamide]	530 pM	50 pM
C=C[C@@H]1C[C@]1(NC(=O)[C@@H]1C[C@@H]2CN1C(=O)[C@H](C(C)(C)C)NC(=O)O[C@@H]1C[C@H]1CCCCCc1c(nc3cc(C(C)C)ccc3c1OCCCNC(C)C)O2)C(=O)NS(=O)(=O)C1(C)CC1 [Example 160, (1aR,5S,8S,10R,22aR)-5-tert-butyl-N-[(1R,2S)-2-ethenyl-1-{[(1-methylcyclopropyl)sulfonyl]carbamoyl}cyclopropyl]-3,6-dioxo-14-(propan-2-yl)-17-[3-(propan-2-ylamino)propoxy]-1,1a,3,4,5,6,9, 10,18,19,20,21,22,22a-tetradeca hydro-8H-7,10-methanocyclopropa[18,19] [1,10,3,6]dioxadiazacyclononadecino [11,12-b]quinoline-8-carboxamide]	440 pM	53 pM
C=C[C@@H]1C[C@]1(NC(=O)[C@@H]1C[C@@H]2CN1C(=O)[C@H](C(C)(C)C)NC(=O)O[C@@H]1C[C@H]1CCCCCc1c(nc3cc(C(C)C)ccc3c1OCCCN1CCOCC1)O2)C(=O)NS(=O)(=O)C1(C)CC1 [Example 161, (1aR,5S,8S,10R,22aR)-5-tert-butyl-N-[(1R,2S)-2-ethenyl-1-{[(1-methylcyclopropyl)sulfonyl]carbamoyl}cyclopropyl]-17-[3-(morpholin-4-yl)propoxy]-3,6-dioxo-14-(propan-2-yl)-1,1a,3,4,5,6,9,10,18,19,20,21,22,22a-tetradecahydro-8H-7,10-methanocyclopropan[18,19] [1,10,3,6]dioxadiazacyclononadecino [11,12-b]quinoline-8-carboxamide]	2800 pM	310 pM
C=C[C@@H]1C[C@]1(NC(=O)[C@@H]1C[C@@H]2CN1C(=O)[C@H](C(C)(C)C)NC(=O)O[C@@H]1C[C@H]1CCCCCc1c(nc3cc(C(C)C)ccc3c1OCCCN1CCS(=O)(=O)CC1)O2)C(=O)NS(=O)(=O)C1(C)CC1 [Example 162, (1aR,5S,8S,10R,22aR)-5-tert-butyl-17-[3-(1,1-dioxidothiomorpholin-4-yl)propoxy]-N-[(1R,2S)-2-ethenyl-1-{[(1-methylcyclopropyl)sulfonyl]carbamoyl}cyclopropyl]-3,6-dioxo-14-(propan-2-yl)-1,1a,3,4,5,6,9,10,18, 19,20,21,22,22a-tetradecahydro-8H-7,10-methanocyclopropa[18,19] [1,10,3,6]dioxadiazacyclononadecino [11,12-b]quinoline-8-carboxamide]	1700 pM	180 pM
